The record followed here is paper PMC10726354, “Design, Synthesis, and Biological Evaluation of Small-Molecule-Based Radioligands with Improved Pharmacokinetic Properties for Imaging of Programmed Death Ligand 1” (Journal of Medicinal Chemistry, 2023).

One data set concerns the target T1, PD-L1 (Homo sapiens, UniProt Q9NZQ7).
T1 construct: expressed in transfected cells; host or cells: PC3 cells (human prostate carcinoma), stably transduced
In words: Saturation binding assay on live PC3 PD-L1 overexpressing cells. The note with it: saturation binding, live PC3 PD-L1 overexpressing cells, 2.5% BSA, mean ± SD. As for the experimental part: For assessing the binding affinity of compounds [^64Cu]Cu-1–6, PC3 cells transduced with PD-L1 were used. Dissociation constants in equilibrium (KD) and maximum number of binding sites (Bmax) were determined in a saturation binding assay. The assays were performed with the addition of 2.5% bovine serum albumin (BSA) in the medium to prevent unspecific binding to plastic wells, as reported previously for our first radioligands.[1]
For saturation binding, cells were trypsinized (0.05% Trypsin–EDTA, Gibco, USA), counted, and diluted to ∼160,000 cells/mL. 0.25 mL of the cell solution was then added to each well of a 48-well plate (Falcon Multiwell #353078) and grown for at least 2 days.
To determine the affinity (KD) and the number of binding sites (Bmax) of the herein described PD-L1 small-molecule ligands, saturation binding was performed in at least three independent experiments, as described before.[45] Cells were brought to room temperature followed by cooling on ice (each 15 min). The medium was removed and replaced with 200 μL assay buffer [PBS + 2.5% (w/v) BSA] for total binding (TB) conditions or assay buffer containing 300 μM BMS-1166 (in DMSO, resulting in 0.03% v/v) for the assessment NSB. After 15 min preincubation, 200 μL of each of the eight serial 1:1 dilutions (500 to 3.91 nM) of the respective radioligand was added (in triplicate). Cells were then incubated for 90 min at 4 °C, washed (3 × 1 min), and lysed in 500 μL of 0.1 M NaOH + 1% SDS. Radioactivity of the lysate was measured and decay corrected to a reference time (end of radiolabeling). An additional plate was subjected to the same conditions (preincubation, incubation, and washing) using PBS without BSA for each experiment, and the protein content of these lysates was determined by BCA assay. From CPM measurements, final values (pmol/mg protein) were calculated using the mean protein content and molar activity.
Processed data were then subjected to nonlinear iterative curve fitting (GraphPad Prism 9) to yield Bmax (in pmol/mg protein) and KD (in nM).

Data set [1] is described as follows: Kinetic stability in PBS buffer (pH 7.4), radio-HPLC. The class given is physicochemical. The settings on record: room temperature, radio-HPLC at 1, 24 and 48 h. The procedure:
The kinetic stability of all ^64Cu-labeled ligands was investigated in PBS buffer solution (pH 7.4) by incubation at room temperature and monitoring with radio-HPLC up to 48 h. […] During the time course, no changes in peak number/shape and retention time were observed, proving the stability of the compounds. […] At the 48 h time point, however, a shoulder appears with a slightly higher retention time (∼7.0 min), indicating minor decomposition (>94% intact radiotracer).
The corresponding radiotracer was labeled with approximately 500 MBq of ^64Cu in 50 μL of HEPES solution (adjusted to pH 4.5), as described above. After successful labeling, 450 μL of PBS solution (pH 7.4) was added, and the incubation was performed (room temperature) at 300 rpm. At each time point (1, 24, and 48 h), an aliquot was withdrawn and injected into the radio-HPLC (PerkinElmer, Massachusetts, United States system C or D, Supporting Information). Evaluation and graphical plotting were performed with OriginPro 9.0.

In a further data set the test system is PC3 mock tumor. In words: Small-animal PET, uptake in mock tumor. The note with it: for SUVmax PC3 mock tumor: tracer only; for SUVmax PC3 mock tumor +block: blocker i.v. before tracer: Cu-1 100 nmol 1, Cu-2 100 nmol 2, Cu-3 1000 nmol 4, Cu-4 500 nmol 4, Cu-6 250 nmol 1 (~5 min prior), Cu-5 100 nmol 5 (~30 min prior). As for the experimental part: Changes are reported as % change of the SUVmax of the PD-L1 expressing over the respective value of the mock tumor. Similarly, the effect of blocking is reported as % change of the SUVmax of the animal injected with cold compound over that of the animal that received tracer only.
Animal experiments were performed in accordance with the guidelines of the German Regulations for Animal Welfare, approved by the Saxonian Ethical Committee for Animal Experiments (reference number DD24.1-5131/449/49). Male athymic NMRI-nude mice (Rj: NMRI-Foxn1^nu/nu, Janvier Laboratories, Le Genest-Saint-Isle, France) between 8 and 22 weeks of age were used. Under general anesthesia, [∼10% desflurane (Baxter, Deerfield, IL, USA) in 30 vol % oxygen + air] and warming, the animals were subcutaneously injected with 3–5 × 10^6 PC3-PD-L1 and PC3-mock cells [in 50 μL PBS +50 μL Matrigel (Corning, Glendale, USA)] into the right and left thigh, respectively. Tumor growth was monitored three times a week by caliper measurements, and mice with tumor sizes above 7 mm were included in the experiments.
For PET studies, general anesthesia was induced as described above. PET and X-ray computed tomography (CT) were performed in a dedicated small animal nanoScan PET/CT scanner, with four animals imaged simultaneously (Mediso, Budapest, Hungary). CT images were employed for attenuation correction and anatomical referencing. Animals received three individual scans corresponding to 0–2 h (dynamic) and 4.5 and 24 h (static) postinjection.
PD-L1 radiotracer candidates (in 300 μL sterile 0.9% NaCl/HEPES buffer, pH 6–7, between 7 and 12 MBq, molar activities > 12 GBq/μmol) were delivered over 30 s i.v. (lateral tail vein) and PET acquisition started simultaneously. For blocking condition, a defined quantity of compound (the same unlabeled compound, one from the same series or BMS-1166) was diluted in sterile saline and injected i.v. approximately 5 min prior to the radiotracer. Animals not subjected to blocking were injected with vehicle at the same time.
Three-dimensional list mode data were binned using the 400–600 keV energy window and sorted into 36 time frames (15 × 10 s, 5 × 30 s, 5 × 60 s, 4 × 300 s, 3 × 600 s, 4 × 900 s). Time frames were reconstructed using the Tera-TomoTM 3D algorithm applying a voxel size of 0.4 mm and corrections for decay, scatter, and attenuation.
Three-dimensional volumes of interest were delineated applying fixed thresholding at 35% of the measured maximum intensity. Standardized uptake values (SUV = [MBq detected activity/mL tissue]/[MBq injected activity/g body weight], […]) were determined in selected volumes of interest, among these PD-L1 and mock tumors.
14. In vivo: PET- SUV data
Standardized uptake values (SUVmax)
Supplementary table 1: In vivo standardized uptake values (SUVmax ± standard deviation) of 64Cu-labeled third series compounds [64Cu]Cu-1-6 at 1.5 (1–2), 4.5 (4–5) and 24.5 (24–25) hours
post injection (p.i.). Compounds used for blocking are described for each tracer and were intravenously injected in sterile saline at stated time before the radiotracer. Animals designated for
tracer-only received matched type and volume of vehicle at the same time.

Data set [2] can be described thus: Small-animal PET, excretion pattern. The class given is in vivo, mouse. The settings on record: PET 0–2, 4–5 and 24–25 h p.i., i.v. As for the experimental part:
Time points of PET imaging were 0–2, 4–5, and 24–25 h post injection (p.i.).

Data set [3] is described as follows: Radiotracer production data: stability of the product to in vivo experiments. It is filed as physicochemical.

T1 sequence (Q9NZQ7 19-290): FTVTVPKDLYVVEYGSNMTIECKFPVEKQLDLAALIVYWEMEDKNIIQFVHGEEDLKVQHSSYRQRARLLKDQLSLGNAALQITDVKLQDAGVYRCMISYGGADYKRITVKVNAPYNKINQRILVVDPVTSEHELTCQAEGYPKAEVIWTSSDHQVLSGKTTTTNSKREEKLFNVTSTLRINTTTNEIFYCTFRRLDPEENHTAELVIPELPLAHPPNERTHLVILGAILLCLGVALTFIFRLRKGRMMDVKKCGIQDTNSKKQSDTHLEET

On to `Cc1c(COc2cc(OCc3cncc(S(C)(=O)=O)c3)c(CN[C@@H](CS(=O)(=O)O)C(=O)NCCS(=O)(=O)O)cc2Cl)cccc1-c1cccc(OCc2cn(CCCN3CCN(C(=O)[C@H](CS(=O)(=O)O)NC(=O)CC[C@H](C(=O)O)N4CCN(CC(=O)O)CCN(CC(=O)O)CC4)CC3)nn2)c1C.[64Cu+2]` [[^64Cu]Cu-3], for which, on PD-L1 (90 min at 4 °C, at least three experiments, read-out: KD), the equilibrium dissociation constant (Kd) was found to be 93.7 ± 10.8 nM. At PD-L1, the “Bmax (maximum number of binding sites)” value is reported as 8.51 ± 0.48 pmol·mg^–1. The “intact radioligand in PBS (pH 7.4)” value in data set [1] is more than 99%. Besides, the “blocking effect in the mock tumor” value in the data set with PC3 mock tumor (1–2 and 4–5 h p.i., 1000 nmol unlabeled compound 4) is reported as “negligible”. For the same compound, the “SUVmax PC3 mock tumor” value in the data set with PC3 mock tumor (1.5 (1–2) hours p.i.) was 0.85 ± 0.05; in the data set with PC3 mock tumor (4.5 (4–5) hours p.i.), 0.55 ± 0.15; in the data set on PC3 mock tumor (24.5 (24–25) hours p.i.), 0.7 ± 0.2. The “SUVmax PC3 mock tumor +block” value stood at 0.80 ± 0.1 in the data set with PC3 mock tumor (1.5 (1–2) hours p.i.), 0.55 ± 0.05 in the data set on PC3 mock tumor (4.5 (4–5) hours p.i.) and 0.45 ± 0.05 in the data set with PC3 mock tumor (24.5 (24–25) hours p.i.). In addition, the “blocking effect on SUVmax in the mock tumor” value in the data set on PC3 mock tumor (24–25 h p.i., blocker: Cu-1, Cu-2 100 nmol unlabeled compound, Cu-3 1000 nmol 4) was 36%. Besides, in data set [2], the “excretion / clearance pattern (PET)” value was “predominantly a fast renal and lower hepatobiliary clearance”. The “Stability of the product to in vivo experiments” value in data set [3] is reported as more than 99%.
